Reference: PubChem BioAssay (NCI)
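Values below derive from 48-hour exposures of cells grown in 96-well plates, with endpoints linearly interpolated between the two concentrations bracketing the appropriate inhibition level. TGI marks complete inhibition of growth.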

Assays:
Assay in all cases: NCI anticancer screen, dose series, 48 h
SR leukemia = test system: SR leukemia
MDA-MB-231 breast = test system: MDA-MB-231 breast
RPMI-8226 leukemia = test system: RPMI-8226 leukemia
SNB-19 CNS = test system: SNB-19 CNS
SK-OV-3 ovarian = test system: SK-OV-3 ovarian
UACC-257 melanoma = test system: UACC-257 melanoma
SNB-75 CNS = test system: SNB-75 CNS
OVCAR-8 ovarian = test system: OVCAR-8 ovarian
MDA-N = test system: MDA-N
SW-620 colon = test system: SW-620 colon
NCI/ADR-RES ovarian = test system: NCI/ADR-RES ovarian
SK-MEL-5 melanoma = test system: SK-MEL-5 melanoma
SK-MEL-28 melanoma = test system: SK-MEL-28 melanoma
OVCAR-3 ovarian = test system: OVCAR-3 ovarian
CAKI-1 renal = test system: CAKI-1 renal
A549 NSCLC = test system: A549 NSCLC
A498 renal = test system: A498 renal
SF-295 CNS = test system: SF-295 CNS
LOX IMVI melanoma = test system: LOX IMVI melanoma
NCI-H226 lung = test system: NCI-H226 lung
MDA-MB-435 = test system: MDA-MB-435
HT29 colon = test system: HT29 colon
HL-60(TB) leukemia = test system: HL-60(TB) leukemia
HCT-15 colon = test system: HCT-15 colon
786-0 renal = test system: 786-0 renal
SF-539 CNS = test system: SF-539 CNS
UO-31 renal = test system: UO-31 renal
IGROV1 ovarian = test system: IGROV1 ovarian
HCC-2998 colon = test system: HCC-2998 colon
HOP-92 NSCLC = test system: HOP-92 NSCLC
KM12 colon = test system: KM12 colon
HS 578T breast = test system: HS 578T breast
DU-145 prostate = test system: DU-145 prostate
MCF7 breast = test system: MCF7 breast
HCT-116 colon = test system: HCT-116 colon
PC-3 prostate = test system: PC-3 prostate
EKVX NSCLC = test system: EKVX NSCLC
K-562 leukemia = test system: K-562 leukemia
U251 CNS = test system: U251 CNS
ACHN renal = test system: ACHN renal
BT-549 breast = test system: BT-549 breast
SN12C renal = test system: SN12C renal
T-47D breast = test system: T-47D breast
MALME-3M melanoma = test system: MALME-3M melanoma
RXF 393 renal = test system: RXF 393 renal
NCI-H460 lung = test system: NCI-H460 lung
SK-MEL-2 melanoma = test system: SK-MEL-2 melanoma
HOP-62 NSCLC = test system: HOP-62 NSCLC
CCRF-CEM leukemia = test system: CCRF-CEM leukemia
SF-268 CNS = test system: SF-268 CNS
NCI-H522 lung = test system: NCI-H522 lung
TK-10 renal = test system: TK-10 renal
MOLT-4 leukemia = test system: MOLT-4 leukemia
UACC-62 melanoma = test system: UACC-62 melanoma
M14 melanoma = test system: M14 melanoma
NCI-H23 lung = test system: NCI-H23 lung
COLO 205 colon = test system: COLO 205 colon
HOP-18 NSCLC = test system: HOP-18 NSCLC
KM20L2 colon = test system: KM20L2 colon
OVCAR-5 ovarian = test system: OVCAR-5 ovarian
LXFL 529 NSCLC = test system: LXFL 529 NSCLC
DLD-1 colon = test system: DLD-1 colon
SNB-78 CNS = test system: SNB-78 CNS
OVCAR-4 ovarian = test system: OVCAR-4 ovarian
M19-MEL melanoma = test system: M19-MEL melanoma
DMS 273 small cell lung = test system: DMS 273 small cell lung
XF 498 CNS = test system: XF 498 CNS
DMS 114 small cell lung = test system: DMS 114 small cell lung

COc1ccc(NC(=O)CC(=O)N2N=C(c3ccccc3)C(N=Nc3ccc(S(=O)(=O)CCOS(=O)(=O)O)cc3)C2=O)cc1 (centres undefined)
TGI (SR leukemia): > 100 µM
TGI (MDA-MB-231 breast): > 100 µM
TGI (RPMI-8226 leukemia): > 100 µM
TGI (SNB-19 CNS): > 100 µM
TGI (SK-OV-3 ovarian): > 100 µM
TGI (UACC-257 melanoma): > 100 µM
TGI (SNB-75 CNS): > 100 µM
TGI (OVCAR-8 ovarian): > 100 µM
TGI (MDA-N): > 100 µM
TGI (SW-620 colon): > 100 µM
TGI (NCI/ADR-RES ovarian): > 100 µM
TGI (SK-MEL-5 melanoma): > 100 µM
TGI (SK-MEL-28 melanoma): > 100 µM
TGI (OVCAR-3 ovarian): > 100 µM
TGI (CAKI-1 renal): > 100 µM
TGI (A549 NSCLC): > 100 µM
TGI (A498 renal): > 100 µM
TGI (SF-295 CNS): > 100 µM
TGI (LOX IMVI melanoma): > 100 µM
TGI (NCI-H226 lung): > 100 µM
TGI (MDA-MB-435): > 100 µM
TGI (HT29 colon): > 100 µM
TGI (HL-60(TB) leukemia): > 100 µM
TGI (HCT-15 colon): > 100 µM
TGI (786-0 renal): > 100 µM
TGI (SF-539 CNS): > 100 µM
TGI (UO-31 renal): > 100 µM
TGI (IGROV1 ovarian): > 100 µM
TGI (HCC-2998 colon): > 100 µM
TGI (HOP-92 NSCLC): > 100 µM
TGI (KM12 colon): > 100 µM
TGI (HS 578T breast): > 100 µM
TGI (DU-145 prostate): > 100 µM
TGI (MCF7 breast): > 100 µM
TGI (HCT-116 colon): > 100 µM
TGI (PC-3 prostate): > 100 µM
TGI (EKVX NSCLC): > 100 µM
TGI (K-562 leukemia): > 100 µM
TGI (U251 CNS): > 100 µM
TGI (ACHN renal): > 100 µM
TGI (BT-549 breast): > 100 µM
TGI (SN12C renal): > 100 µM
TGI (T-47D breast): > 100 µM
TGI (MALME-3M melanoma): > 100 µM
TGI (RXF 393 renal): > 100 µM
TGI (NCI-H460 lung): > 100 µM
TGI (SK-MEL-2 melanoma): > 100 µM
TGI (HOP-62 NSCLC): > 100 µM
TGI (CCRF-CEM leukemia): > 100 µM
TGI (SF-268 CNS): > 100 µM
TGI (NCI-H522 lung): > 100 µM
TGI (TK-10 renal): > 100 µM
TGI (MOLT-4 leukemia): > 100 µM
TGI (UACC-62 melanoma): > 100 µM
TGI (M14 melanoma): > 100 µM
TGI (NCI-H23 lung): > 100 µM
TGI (COLO 205 colon): > 100 µM

COc1ccc2nc3cc(Cl)ccc3c(NCCC[N+](C)(C)CCCCCCCCCCCCCCCC[N+](C)(C)CCCNc3c4ccc(Cl)cc4nc4ccc(OC)cc34)c2c1
TGI (HOP-18 NSCLC): 14 µM
TGI (OVCAR-8 ovarian): > 100 µM
TGI (OVCAR-3 ovarian): > 100 µM
TGI (CAKI-1 renal): > 100 µM
TGI (A549 NSCLC): > 100 µM
TGI (A498 renal): > 100 µM
TGI (SF-295 CNS): > 100 µM
TGI (NCI-H226 lung): > 100 µM
TGI (HCT-15 colon): > 100 µM
TGI (786-0 renal): > 100 µM
TGI (KM20L2 colon): > 100 µM
TGI (OVCAR-5 ovarian): 14.2 µM
TGI (EKVX NSCLC): 9.97 µM
TGI (ACHN renal): > 100 µM
TGI (LXFL 529 NSCLC): 3.25 µM
TGI (SN12C renal): > 100 µM
TGI (DLD-1 colon): > 100 µM
TGI (RXF 393 renal): > 100 µM
TGI (NCI-H522 lung): 8 µM
TGI (TK-10 renal): 25.3 µM

O=S(=O)(N/N=C/c1ccc(Cl)c(Cl)c1)c1ccccc1
TGI (SR leukemia): > 100 µM
TGI (RPMI-8226 leukemia): > 100 µM
TGI (SK-OV-3 ovarian): > 100 µM
TGI (UACC-257 melanoma): > 100 µM
TGI (SNB-75 CNS): > 100 µM
TGI (HOP-18 NSCLC): > 100 µM
TGI (OVCAR-8 ovarian): > 100 µM
TGI (SW-620 colon): > 100 µM
TGI (SK-MEL-5 melanoma): > 100 µM
TGI (SK-MEL-28 melanoma): > 100 µM
TGI (OVCAR-3 ovarian): > 100 µM
TGI (CAKI-1 renal): > 100 µM
TGI (SNB-78 CNS): > 100 µM
TGI (A549 NSCLC): > 100 µM
TGI (A498 renal): 92.5 µM
TGI (SF-295 CNS): > 100 µM
TGI (OVCAR-4 ovarian): > 100 µM
TGI (LOX IMVI melanoma): > 100 µM
TGI (NCI-H226 lung): > 100 µM
TGI (HT29 colon): > 100 µM
TGI (HL-60(TB) leukemia): > 100 µM
TGI (HCT-15 colon): > 100 µM
TGI (786-0 renal): > 100 µM
TGI (SF-539 CNS): > 100 µM
TGI (UO-31 renal): 94.2 µM
TGI (IGROV1 ovarian): > 100 µM
TGI (HCC-2998 colon): > 100 µM
TGI (HOP-92 NSCLC): 48.6 µM
TGI (KM12 colon): > 100 µM
TGI (KM20L2 colon): > 100 µM
TGI (HCT-116 colon): > 100 µM
TGI (OVCAR-5 ovarian): > 100 µM
TGI (M19-MEL melanoma): > 100 µM
TGI (EKVX NSCLC): > 100 µM
TGI (K-562 leukemia): > 100 µM
TGI (U251 CNS): > 100 µM
TGI (ACHN renal): > 100 µM
TGI (LXFL 529 NSCLC): > 100 µM
TGI (DMS 273 small cell lung): > 100 µM
TGI (SN12C renal): > 100 µM
TGI (XF 498 CNS): > 100 µM
TGI (MALME-3M melanoma): > 100 µM
TGI (DLD-1 colon): > 100 µM
TGI (RXF 393 renal): 63.2 µM
TGI (SK-MEL-2 melanoma): > 100 µM
TGI (HOP-62 NSCLC): > 100 µM
TGI (CCRF-CEM leukemia): > 100 µM
TGI (SF-268 CNS): > 100 µM
TGI (DMS 114 small cell lung): 87 µM
TGI (TK-10 renal): > 100 µM
TGI (MOLT-4 leukemia): 84.4 µM
TGI (UACC-62 melanoma): > 100 µM
TGI (M14 melanoma): > 100 µM
TGI (NCI-H23 lung): > 100 µM
TGI (COLO 205 colon): 39.6 µM

O=C(CCC(=O)Nc1cccc(Cl)c1)CC(=O)c1ccc(F)cc1
TGI (SR leukemia): > 100 µM
TGI (RPMI-8226 leukemia): > 100 µM
TGI (SNB-19 CNS): > 100 µM
TGI (SK-OV-3 ovarian): > 100 µM
TGI (UACC-257 melanoma): > 100 µM
TGI (SNB-75 CNS): > 100 µM
TGI (OVCAR-8 ovarian): > 100 µM
TGI (SW-620 colon): > 100 µM
TGI (SK-MEL-28 melanoma): > 100 µM
TGI (OVCAR-3 ovarian): > 100 µM
TGI (CAKI-1 renal): > 100 µM
TGI (SNB-78 CNS): > 100 µM
TGI (A549 NSCLC): > 100 µM
TGI (SF-295 CNS): 61.2 µM
TGI (OVCAR-4 ovarian): > 100 µM
TGI (LOX IMVI melanoma): > 100 µM
TGI (NCI-H226 lung): > 100 µM
TGI (HT29 colon): > 100 µM
TGI (HL-60(TB) leukemia): > 100 µM
TGI (HCT-15 colon): > 100 µM
TGI (786-0 renal): > 100 µM
TGI (SF-539 CNS): > 100 µM
TGI (UO-31 renal): > 100 µM
TGI (HCC-2998 colon): > 100 µM
TGI (HOP-92 NSCLC): > 100 µM
TGI (KM12 colon): > 100 µM
TGI (KM20L2 colon): > 100 µM
TGI (HCT-116 colon): > 100 µM
TGI (OVCAR-5 ovarian): > 100 µM
TGI (K-562 leukemia): > 100 µM
TGI (ACHN renal): > 100 µM
TGI (DMS 273 small cell lung): > 100 µM
TGI (SN12C renal): > 100 µM
TGI (XF 498 CNS): > 100 µM
TGI (MALME-3M melanoma): > 100 µM
TGI (DLD-1 colon): > 100 µM
TGI (NCI-H460 lung): > 100 µM
TGI (SK-MEL-2 melanoma): > 100 µM
TGI (HOP-62 NSCLC): > 100 µM
TGI (SF-268 CNS): > 100 µM
TGI (NCI-H522 lung): > 100 µM
TGI (TK-10 renal): > 100 µM
TGI (MOLT-4 leukemia): > 100 µM
TGI (UACC-62 melanoma): > 100 µM
TGI (M14 melanoma): > 100 µM
TGI (NCI-H23 lung): > 100 µM
TGI (COLO 205 colon): > 100 µM
